# Assay results: US7220402B1, “Alpha-fetoprotein peptides and uses for imaging” (Ordway Research Institute, Inc., priority 2001, dated 2007)
# “Also recorded” adds a separate entry of the source. Square brackets hold non-standard residues; d marks the D form. Ends that are not written are not given here. Hyp = O=C(O)[C@@H]1C[C@@H](O)CN1
# Key:
# [1] = tested on: E2-stimulated growth of immature mouse uterus; experiment: Immature mouse uterine growth assay (anti-estrotrophic activity); assay type: in vivo; details: for inhibition of the uterotrophic effect of estradiol: Pep 1 μg i.p. one hour before E2 0.5 μg i.p., uteri weighed 22 h later (FIG. 13b); for optimal dose for inhibition of estrogen-stimulated growth of mouse uterus: i.p., biphasic dose-response (FIG. 1a)
# Method: FIGS. 1a and 1b illustrate the anti-uterotrophic activity of octapeptide, SEQ ID NO: 2, […], measured in the immature mouse uterine growth assay. Peptide or vehicle control was injected i.p. into immature female Swiss mice. One hour later 0.5 μg of E2 vehicle control was injected i.p. into these mice. Twenty-two hours later, uteri were dissected and weighed. Percent inhibition of E2-stimulated growth of uterus by peptide was calculated as described in Materials and Methods. There were five to eight replicate mice per treatment group.
# (§1) Immature Mouse Uterine Growth Assay.
# Differences between groups were evaluated, employing the non-parametric Wilcoxon Sum of Ranks test (one-sided). In all cases, growth inhibitions that were greater than 25% were significant at p≦0.05.
# [2] = tested on: MCF-7 human breast cancer xenografts; experiment: Human breast cancer xenograft assay, MCF-7; assay type: in vivo; details: E2-supplemented SCID mice; peptide 1 μg i.p. twice a day, tamoxifen 50 μg i.p. once a day; 30-day observation
# Method: FIG. 5 illustrates the anti-estrotrophic activity of hydroxyproline-substituted linear peptide against MCF-7 human breast cancer xenografts. There were five to eight replicate mice per treatment group. Estrogen was provided via a slow release pellet implanted subcutaneously. Peptide was given twice a day i.p. at a dose of 1 μg per mouse. Tumor volumes in each mouse were measured at the time of tumor implantation and at 10-day intervals thereafter during survival laparotomies.
# FIGS. 9a and 9b illustrate the effect of AFP-derived peptide on growth of estrogen-receptor-positive MCF-7 and MCF-7/Tarn human breast cancer xenografts. Tumors were implanted as described in Materials and Methods. […] Tumor volumes in each mouse were measured at the time of tumor implantation, again at day 15 after tumor implantation during survival laparotomy and again at day 30 after tumor implantation during necropsy. […]
# (§2) Human Breast Cancer Xenograft Assay. […] Tumor growth was monitored during survival laparotomy at 10 day intervals by measurement of the diameters of the short (d) and long axes (D) of each tumor, using a dissecting microscope equipped with an ocular micrometer. Tumor volumes were calculated using the formula (π/6) (d)^2 D, assuming the tumor shape to be an ellipsoid of revolution around its long axis (D). […] Mean tumor volume±standard error in each group was calculated for display of growth curves. […]
# [3] = tested on: MCF-7 subline made resistant to tamoxifen in culture (MCF-7/Tam xenografts); experiment: Human breast cancer xenograft assay, tamoxifen-resistant MCF-7 subline; assay type: in vivo; details: E2-supplemented SCID mice; peptide 1 μg i.p. twice a day, tamoxifen 50 μg i.p. once a day; day 30
# Method: FIGS. 9a and 9b illustrate the effect of AFP-derived peptide on growth of estrogen-receptor-positive MCF-7 and MCF-7/Tarn human breast cancer xenografts. Tumors were implanted as described in Materials and Methods. Estrogen (●) was provided via a slow-release pellet of estradiol (E2) implanted s.c. Peptide (▴) was given twice a day i.p. at a dose of 1 μg per injection. […] Tumor volumes in each mouse were measured at the time of tumor implantation, again at day 15 after tumor implantation during survival laparotomy and again at day 30 after tumor implantation during necropsy. There was a minimum of 5 mice per group.
# Cell Lines. T47D and MDA-231 human breast cancer cell lines were purchased from the American Type Culture Collection (Manassas, Va.). […]
# as §2
# [4] = tested on: estrogen-receptor-positive T47D human breast cancer xenografts; experiment: Human breast cancer xenograft assay, T47D; assay type: in vivo; details: E2-supplemented SCID mice; peptide 1 μg i.p. twice a day; 30-day observation
# [5] = tested on: estrogen-receptor-negative MDA-MB-231 human breast cancer xenografts; experiment: Human breast cancer xenograft assay, MDA-MB-231; assay type: in vivo; details: SCID mice, peptide 1 μg i.p. twice a day, tamoxifen 50 μg i.p. once a day, 30-day observation
# estrogen receptor = target: T1, estrogen receptor (Oryctolagus cuniculus, UniProt G1SML6); experiment: Assessment of estrogen receptor antagonism ([3H]estradiol binding, rabbit uterine cytosol)
# T1 sequence (G1SML6 1-598): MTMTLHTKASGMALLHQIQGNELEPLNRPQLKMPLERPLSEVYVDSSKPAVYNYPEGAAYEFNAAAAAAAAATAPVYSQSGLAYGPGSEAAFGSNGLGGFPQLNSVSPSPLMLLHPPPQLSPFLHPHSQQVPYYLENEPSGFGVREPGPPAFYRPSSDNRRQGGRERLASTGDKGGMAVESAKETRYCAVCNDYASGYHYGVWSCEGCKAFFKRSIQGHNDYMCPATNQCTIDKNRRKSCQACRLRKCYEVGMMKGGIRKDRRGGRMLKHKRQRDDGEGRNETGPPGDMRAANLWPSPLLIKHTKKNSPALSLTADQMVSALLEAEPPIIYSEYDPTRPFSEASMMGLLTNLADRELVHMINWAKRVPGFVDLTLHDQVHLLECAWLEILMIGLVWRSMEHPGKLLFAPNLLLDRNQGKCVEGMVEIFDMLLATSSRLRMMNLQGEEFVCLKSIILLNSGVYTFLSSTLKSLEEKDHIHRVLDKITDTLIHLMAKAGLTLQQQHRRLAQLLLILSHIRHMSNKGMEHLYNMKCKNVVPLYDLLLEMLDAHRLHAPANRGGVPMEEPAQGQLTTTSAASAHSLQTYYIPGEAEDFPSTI
# Method: (§3) Rabbit uterine cytosol was used as a source of estrogen receptor.
# as §3
# Assessment of Estrogen Receptor Antagonism. Commercially obtained rabbit uteri (Pel-Freez Biological, Rogers, Ark.) were used as a source of estrogen receptor. […] Total count tubes received 20 μl of [3H]estradiol and 180 μl of assay buffer. After incubation overnight at 4° C., all but the total count tubes received 300 μl of dextran-coated charcoal suspension; tubes were agitated for 15 min and then centrifuged (1,000×g) for 15 min. Supernatants were decanted into counting vials, scintillant was added, and protein-bound tritium was determined by liquid scintillation counting.
# [6] = tested on: tamoxifen-stimulated growth of immature mouse uterus; experiment: Inhibition of tamoxifen-stimulated growth of immature mouse uterus; assay type: in vivo; details: Pep 1 μg i.p. one hour before Tam 1.0 μg i.p., uteri weighed 22 h later
# Excerpt: as §1
# [7] = Preliminary pharmacokinetic studies in mice; assay type: in vivo
# [8] = tested on: MCF-7 human breast cancer xenografts; details: Bennett et al. 1998; cited from earlier work
# immature mouse uterus = experiment: Uterotrophic effect of test agent alone on immature mouse uterus; details: agent alone i.p.; peptide up to 10 μg/mouse
# Method: Various doses indicated on the abscissa of each test agent were injected i.p. Twenty-two hours later uteri were harvested and weighed. Mean normalized uterine weights (mg uterine weight/g mouse body weight) for each group are shown on the ordinate. In FIG. 13b, Pep (1 μg) or vehicle (saline, 0.2 ml) were injected i.p. One hour later E2 (0.5 μg) or Tam (1.0 μg) were injected i.p. Twenty-two hours later uteri were harvested and weighed.
# A bioassay for anti-estrotrophic activity was performed using an immature mouse uterine growth assay (22). Swiss/Webster female mice, 6–8 g in body weight (13–15 days old), were obtained from Taconic Farms (Germantown, N.Y.). […] In a typical experiment, each group received two sequential intraperitoneal injections spaced one hour apart. Test material or vehicle control for that material was contained in the first injectant. Estradiol (E2) or vehicle control for E2 was contained in the second injectant. Twenty-two hours after the second injection, uteri were dissected, trimmed free of mesenteries, and immediately weighed. […] Experiments employed a minimum of five mice per group, and the mean normalized uterine weight±standard error for each group was calculated. Percent growth inhibition in a test group was calculated from the normalized uterine wet weights as described below. […]
compound,measurement,setting,value
EMTOVNOG (EMT[Hyp]VN[Hyp]G; listed as Homo sapiens) [SEQ ID NO: 4],inhibition of the uterotrophic effect of estradiol,[1]; listed as Pep,significantly different
same,inhibition of the uterotrophic effect of estradiol,[1]; listed as peptide,inhibited
same,effect on growth (tumor volume vs E2 alone) of MCF-7 xenografts,[2],prevented growth; also recorded: no significant increase in tumor volume
same,effect on growth (tumor volume vs E2 alone) of tamoxifen-resistant MCF-7 subline xenografts,[3],completely prevented the xenograft growth; also recorded: completely stopped the growth
same,effect on growth (tumor volume vs E2 alone) of T47D xenografts,[4],completely prevented tumor growth
same,effect on growth of MDA-MB-231 xenografts,[5],Neither peptide nor tamoxifen were effective; also recorded: no effect on the growth
same,effect on growth of MDA-MB-231 xenografts,[5]; listed as AFP-derived peptide,no differences in tumor volumes between any of the groups
same,competition/interference with estrogen binding to the estrogen receptor,"estrogen receptor; cell-free system, no concentration stated",does not interfere
same,interference with E2 binding to ER,estrogen receptor; peptide concentration range of 10^−10M to 10^−5M,no interference
same,inhibition of the uterotrophic effect of tamoxifen,[6],significantly inhibited
same,inhibition of the uterotrophic effect of tamoxifen,[6]; listed as peptide,inhibited
same,biological half-life,[7],two to three
QMTPVNPG (listed as Homo sapiens) [SEQ ID NO: 2],% Inhibition of E2-Stimulated Growth of Immature Mouse Uterus ± SE,"[1]; Storage Time: Fresh, 1 μg peptide i.p.",38 ± 3%
same,% Inhibition of E2-Stimulated Growth of Immature Mouse Uterus ± SE,"[1]; Stored over 1 year (lyophilized, −20° C.), 1 μg peptide i.p.",0 ± 2%
same,% Inhibition of E2-Stimulated Growth of Immature Mouse Uterus ± SE,"[1]; after Urea Treatment (4 M urea, room temperature, one hour) of agent II (stored over 1 year) or IV (fresh), 1 μg i.p.",34 ± 4%
same,anti-estrotrophic activity after storage (shelf-life),"[1]; after five weeks of storage at −20° C. lyophilized, 1 μg per mouse (FIG. 1b)",diminished to insignificant levels
same,optimal dose for inhibition of estrogen-stimulated growth of mouse uterus,[1],1 μg/mouse
same,biological activity of higher molecular weight gel-filtration fraction of aged peptide,"[1]; left side of peak (FIG. 2b), 1 μg i.p.",biologically inactive
same,biological activity of lower molecular weight gel-filtration fraction of aged peptide,"[1]; right side of peak (FIG. 2b), 1 μg i.p.",active
same,biological activity of aged peptide,[1]; stored in the lyophilized state at −20° C. for over one year,completely biologically inactive
same,biological activity of stored inactive peptide after brief treatment with 4M urea,[1],restored its biological activity
"EMTPVNPG (listed as Homo sapiens) [SEQ ID NO: 6, amino acids 472–479 of alpha-fetoprotein]",optimal dose for inhibition of estrogen-stimulated growth of mouse uterus,[1],~1 μg/mouse
same,biological activity of stored inactive peptide after brief treatment with 4M urea,[1],regenerated
"CC/C(=C(\c1ccccc1)c1ccc(OCCN(C)C)cc1)c1ccccc1 [tamoxifen, reference compound]",effect on growth (tumor volume vs E2 alone) of MCF-7 xenografts,[2],prevented growth; also recorded: no increase in tumor volume
same,effect on growth (tumor volume vs E2 alone) of tamoxifen-resistant MCF-7 subline xenografts,[3],resistant to tamoxifen in vivo; also recorded: only minimally effective
same,effect on growth (tumor volume vs E2 alone) of T47D xenografts,[4],prevented growth
same,effect on growth of MDA-MB-231 xenografts,[5],Neither peptide nor tamoxifen were effective; also recorded: did not affect the growth
same,effect on MCF-7 breast cancer xenograft growth in an earlier study,[8],shown to stop MCF-7 breast cancer xenograft growth
same,uterotrophic effect on immature mouse uterus,immature mouse uterus,stimulate the growth of the immature mouse uterus
